System: MV-4-11 cells
Assay: Gene expression microarray analysis (Affymetrix PrimeView) and GSEA
Type: cell-based, human
Design: RFU PODN (11730768_x_at) / Fold change /veh PODN (11730768_x_at) / RFU LINC00158 (11744669_a_at) / Fold change /veh LINC00158 (11744669_a_at) / RFU DUSP10 (11751237_a_at) / Fold change /veh DUSP10 (11751237_a_at) / RFU ID3 (11757404_x_at) / Fold change /veh ID3 (11757404_x_at) / RFU PLEKHG5 (11737974_s_at) / Fold change /veh PLEKHG5 (11737974_s_at) / RFU LRRC4B (11730491_at) / Fold change /veh LRRC4B (11730491_at) / RFU GIMAP4 (11747438_a_at) / Fold change /veh GIMAP4 (11747438_a_at) / RFU KRT8 (11758183_x_at) / Fold change /veh KRT8 (11758183_x_at) / RFU CNN1 (11734310_a_at) / Fold change /veh CNN1 (11734310_a_at) / RFU VPS37D (11726825_at) / Fold change /veh VPS37D (11726825_at) / RFU C10orf10 (11716522_x_at) / Fold change /veh C10orf10 (11716522_x_at) / RFU KIR2DL2 /// KIR2DL4 /// KIR2DL5A /// KIR2DL5B /// KIR2DS1 /// KIR2DS2 /// KIR2DS3 /// KIR2DS4 /// KIR3DL3 /// KIR3DL3 /// KIR3DS1 (11738374_at) / Fold change /veh KIR2DL2 /// KIR2DL4 /// KIR2DL5A /// KIR2DL5B /// KIR2DS1 /// KIR2DS2 /// KIR2DS3 /// KIR2DS4 /// KIR3DL3 /// KIR3DL3 /// KIR3DS1 (11738374_at) / RFU C1QL1 (11718748_at) / Fold change /veh C1QL1 (11718748_at) / RFU TMPRSS4 (11747572_a_at) / Fold change /veh TMPRSS4 (11747572_a_at) / RFU HAMP (11756126_x_at) / Fold change /veh HAMP (11756126_x_at) / RFU RNFT2 (11725882_a_at) / Fold change /veh RNFT2 (11725882_a_at) / RFU NR4A2 (11747474_a_at) / Fold change /veh NR4A2 (11747474_a_at) / RFU ABCC12 (11746883_a_at) / Fold change /veh ABCC12 (11746883_a_at) / RFU TMEM136 (11760407_x_at) / Fold change /veh TMEM136 (11760407_x_at) / RFU CLDN22 /// WWC2 (11732394_at) / Fold change /veh CLDN22 /// WWC2 (11732394_at) / RFU HLA-DPB1 (11760878_x_at) / Fold change /veh HLA-DPB1 (11760878_x_at) / RFU SPINT1 (11716480_a_at) / Fold change /veh SPINT1 (11716480_a_at) / RFU GAP43 (11754022_s_at) / Fold change /veh GAP43 (11754022_s_at) / RFU A4GNT (11735810_at) / Fold change /veh A4GNT (11735810_at) / RFU PRB3 (11715151_x_at) / Fold change /veh PRB3 (11715151_x_at) / RFU TUBB4B (11761932_at) / Fold change /veh TUBB4B (11761932_at) / RFU CAPN14 (11732068_a_at) / Fold change /veh CAPN14 (11732068_a_at) / RFU TMCC2 (11721928_a_at) / Fold change /veh TMCC2 (11721928_a_at) / RFU IRGQ (11745062_a_at) / Fold change /veh IRGQ (11745062_a_at) / RFU FAM174B (11720279_a_at) / Fold change /veh FAM174B (11720279_a_at) / RFU TMPRSS4 (11748680_a_at) / Fold change /veh TMPRSS4 (11748680_a_at) / RFU FAM212B (11763350_a_at) / Fold change /veh FAM212B (11763350_a_at) / RFU PLEKHG5 (11743358_a_at) / Fold change /veh PLEKHG5 (11743358_a_at) / RFU ZSCAN30 (11745921_a_at) / Fold change /veh ZSCAN30 (11745921_a_at) / RFU CMKLR1 (11741424_a_at) / Fold change /veh CMKLR1 (11741424_a_at) / RFU LOC101060620 /// MAPK8IP1 (11723275_at) / Fold change /veh LOC101060620 /// MAPK8IP1 (11723275_at) / RFU SPTSSB (11747773_x_at) / Fold change /veh SPTSSB (11747773_x_at) / RFU PRSS12 (11739890_at) / Fold change /veh PRSS12 (11739890_at) / RFU BIN1 (11741810_x_at) / Fold change /veh BIN1 (11741810_x_at) / RFU WNT11 (11732464_a_at) / Fold change /veh WNT11 (11732464_a_at) / RFU C10orf10 (11716521_a_at) / Fold change /veh C10orf10 (11716521_a_at) / RFU C5orf56 (11738089_at) / Fold change /veh C5orf56 (11738089_at) / RFU CYB561 (11721691_x_at) / Fold change /veh CYB561 (11721691_x_at) / RFU ANKRD19P (11752326_a_at) / Fold change /veh ANKRD19P (11752326_a_at) / RFU OR2T12 /// OR2T33 /// OR2T8 (11738714_s_at) / Fold change /veh OR2T12 /// OR2T33 /// OR2T8 (11738714_s_at) / RFU VCAN (11748164_a_at) / Fold change /veh VCAN (11748164_a_at) / RFU JSRP1 (11732532_at) / Fold change /veh JSRP1 (11732532_at) / RFU KRTAP10-11 (11738290_x_at) / Fold change /veh KRTAP10-11 (11738290_x_at) / RFU MYO3A (11730013_a_at) / Fold change /veh MYO3A (11730013_a_at) / RFU EBF3 (11725865_a_at) / Fold change /veh EBF3 (11725865_a_at) / RFU CAMK2N1 (11719241_x_at) / Fold change /veh CAMK2N1 (11719241_x_at) / RFU C5orf56 (11738088_a_at) / Fold change /veh C5orf56 (11738088_a_at) / RFU OLFML3 (11715873_a_at) / Fold change /veh OLFML3 (11715873_a_at) / RFU LOC100653217 /// NTM (11731650_a_at) / Fold change /veh LOC100653217 /// NTM (11731650_a_at) / RFU MAPK11 (11762145_a_at) / Fold change /veh MAPK11 (11762145_a_at) / RFU FIZ1 (11724087_x_at) / Fold change /veh FIZ1 (11724087_x_at) / RFU OASL (11726364_x_at) / Fold change /veh OASL (11726364_x_at) / RFU SOX15 (11748057_x_at) / Fold change /veh SOX15 (11748057_x_at) / RFU CD79A (11719716_a_at) / Fold change /veh CD79A (11719716_a_at) / RFU HIST1H1D (11736915_at) / Fold change /veh HIST1H1D (11736915_at) / RFU CASKIN2 (11723855_a_at) / Fold change /veh CASKIN2 (11723855_a_at) / RFU LOC730098 (11760151_x_at) / Fold change /veh LOC730098 (11760151_x_at) / RFU OR4N2 (11742367_at) / Fold change /veh OR4N2 (11742367_at) / RFU PRRT2 (11749266_a_at) / Fold change /veh PRRT2 (11749266_a_at) / RFU SNX32 (11753110_a_at) / Fold change /veh SNX32 (11753110_a_at) / RFU CDHR5 (11726645_a_at) / Fold change /veh CDHR5 (11726645_a_at) / RFU RCAN1 (11760418_a_at) / Fold change /veh RCAN1 (11760418_a_at) / RFU FAM167A (11723789_a_at) / Fold change /veh FAM167A (11723789_a_at) / RFU FAM26E (11764081_at) / Fold change /veh FAM26E (11764081_at) / RFU ISYNA1 (11749810_s_at) / Fold change /veh ISYNA1 (11749810_s_at) / RFU ACY1 (11761880_at) / Fold change /veh ACY1 (11761880_at) / RFU 11764098_at / Fold change /veh 11764098_at / RFU SAMD14 (11745864_x_at) / Fold change /veh SAMD14 (11745864_x_at) / RFU NPB (11741838_a_at) / Fold change /veh NPB (11741838_a_at) / RFU TMPRSS6 (11731388_a_at) / Fold change /veh TMPRSS6 (11731388_a_at) / RFU KRTAP10-2 (11738614_at) / Fold change /veh KRTAP10-2 (11738614_at) / RFU ARHGAP8 /// PRR5-ARHGAP8 (11727945_x_at) / Fold change /veh ARHGAP8 /// PRR5-ARHGAP8 (11727945_x_at) / RFU KRTAP5-7 /// NADSYN1 (11734609_at) / Fold change /veh KRTAP5-7 /// NADSYN1 (11734609_at) / RFU RASL12 (11751679_a_at) / Fold change /veh RASL12 (11751679_a_at) / RFU CDKN2B (11736163_a_at) / Fold change /veh CDKN2B (11736163_a_at) / RFU PRF1 (11729649_at) / Fold change /veh PRF1 (11729649_at) / RFU, ZNF638 /// ZNF638-IT1 / Fold change vs veh, ZNF638 /// ZNF638-IT1 / RFU, PANK3 / Fold change vs veh, PANK3 / RFU, SH3YL1 / Fold change vs veh, SH3YL1 / RFU, ZEB2 / Fold change vs veh, ZEB2 / RFU, NRIP1 / Fold change vs veh, NRIP1 / RFU, PTTG1IP / Fold change vs veh, PTTG1IP / RFU, CAPN2 / Fold change vs veh, CAPN2 / RFU, MED14 / Fold change vs veh, MED14 / RFU, SNORA58 / Fold change vs veh, SNORA58 / RFU, C1orf63 / Fold change vs veh, C1orf63 / RFU, LRRFIP1 / Fold change vs veh, LRRFIP1 / RFU, NDUFAF7 / Fold change vs veh, NDUFAF7 / RFU, SLC12A2 / Fold change vs veh, SLC12A2 / RFU, IBTK / Fold change vs veh, IBTK / RFU, ESF1 / Fold change vs veh, ESF1 / Fold change vs veh, TMEM50B / RFU, TAOK1 / Fold change vs veh, TAOK1 / RFU, ACBD3 / Fold change vs veh, ACBD3 / RFU, TMA16 / Fold change vs veh, TMA16 / RFU, RWDD3 / Fold change vs veh, RWDD3 / RFU, BCAT1 / Fold change vs veh, BCAT1 / RFU, EDEM3 / Fold change vs veh, EDEM3 / RFU, TMEM33 / Fold change vs veh, TMEM33 / RFU, WDR75 / Fold change vs veh, WDR75 / RFU, AHCTF1 / Fold change vs veh, AHCTF1 / RFU, TFRC / Fold change vs veh, TFRC / RFU, ZDHHC17 / Fold change vs veh, ZDHHC17 / RFU, NOM1 / Fold change vs veh, NOM1 / RFU, ARL8B / Fold change vs veh, ARL8B / RFU, ZBTB11 / Fold change vs veh, ZBTB11 / RFU, TAMM41 / Fold change vs veh, TAMM41 / RFU, KIAA1704 /// LOC100996395 / Fold change vs veh, KIAA1704 /// LOC100996395 / RFU, ING1 / Fold change vs veh, ING1 / RFU, TRMT61B / Fold change vs veh, TRMT61B / RFU, FUBP3 / Fold change vs veh, FUBP3 / RFU, TP53 / Fold change vs veh, TP53 / RFU, TNKS2 / Fold change vs veh, TNKS2 / RFU, ZFP14 / Fold change vs veh, ZFP14 / RFU, ACTR2 / Fold change vs veh, ACTR2 / RFU, PPP3R1 / Fold change vs veh, PPP3R1 / RFU, PIK3R1 / Fold change vs veh, PIK3R1 / RFU, HNRNPA1 / Fold change vs veh, HNRNPA1 / RFU, RNF170 / Fold change vs veh, RNF170 / RFU, ZNF28 / Fold change vs veh, ZNF28 / RFU, RNGTT / Fold change vs veh, RNGTT / RFU, OGT / Fold change vs veh, OGT / RFU, BRD1 / Fold change vs veh, BRD1 / RFU, MARS / Fold change vs veh, MARS / RFU, ZNF655 / Fold change vs veh, ZNF655 / RFU, FAHD1 / Fold change vs veh, FAHD1 / RFU, BDP1 / Fold change vs veh, BDP1 / RFU, LRRCC1 / Fold change vs veh, LRRCC1 / RFU, ARID1A / Fold change vs veh, ARID1A / RFU, ZNF146 / Fold change vs veh, ZNF146 / RFU, ZNF330 / Fold change vs veh, ZNF330 / RFU, GPN3 / Fold change vs veh, GPN3 / RFU, C9orf123 / Fold change vs veh, C9orf123 / RFU, N4BP2L2 / Fold change vs veh, N4BP2L2 / RFU, ARFIP1 / Fold change vs veh, ARFIP1 / RFU, FAM179B / Fold change vs veh, FAM179B / RFU, BCL10 / Fold change vs veh, BCL10 / RFU, UHRF1BP1L / Fold change vs veh, UHRF1BP1L / RFU, BET1 / Fold change vs veh, BET1 / RFU, CNOT2 / Fold change vs veh, CNOT2 / RFU, ZNF268 / Fold change vs veh, ZNF268 / Fold change vs veh, ZNF507 / RFU, DGCR2 / Fold change vs veh, DGCR2 / RFU, WDSUB1 / Fold change vs veh, WDSUB1 / Fold change vs veh, HSP90B1 /// MIR3652 / RFU, ADSS / Fold change vs veh, ADSS / RFU, GK / Fold change vs veh, GK / RFU, ZNF148 / Fold change vs veh, ZNF148 / RFU, TAF9 / Fold change vs veh, TAF9 / RFU, SLC1A5 / Fold change vs veh, SLC1A5 / RFU, SLMO2 / Fold change vs veh, SLMO2 / RFU, ABCC4 / Fold change vs veh, ABCC4 / RFU, LOC101060439 /// RAP1B / Fold change vs veh, LOC101060439 /// RAP1B / RFU, RFX7 / Fold change vs veh, RFX7 / RFU, GTPBP10 / Fold change vs veh, GTPBP10 / RFU, CNEP1R1 / Fold change vs veh, CNEP1R1 / RFU, BIVM-ERCC5 /// ERCC5 / Fold change vs veh, BIVM-ERCC5 /// ERCC5 / RFU, ILF3 / Fold change vs veh, ILF3 / RFU 11762660_at / Fold change /veh 11762660_at / RFU VCAN (11757783_s_at) / Fold change /veh VCAN (11757783_s_at) / RFU DDX43 (11728927_at) / Fold change /veh DDX43 (11728927_at) / RFU KRT8 (11758188_x_at) / Fold change /veh KRT8 (11758188_x_at) / RFU NKD1 (11759106_at) / Fold change /veh NKD1 (11759106_at) / RFU SRD5A1 (11742802_a_at) / Fold change /veh SRD5A1 (11742802_a_at) / RFU TPSAB1 /// TPSB2 (11721975_s_at) / Fold change /veh TPSAB1 /// TPSB2 (11721975_s_at) / RFU GSTM3 (11746129_a_at) / Fold change /veh GSTM3 (11746129_a_at) / RFU IL23R (11737362_x_at) / Fold change /veh IL23R (11737362_x_at) / RFU TMEM51 (11727254_a_at) / Fold change /veh TMEM51 (11727254_a_at) / RFU PIWIL2 (11732686_x_at) / Fold change /veh PIWIL2 (11732686_x_at) / RFU ORM1 (11744905_x_at) / Fold change /veh ORM1 (11744905_x_at) / RFU CCDC152 (11743942_at) / Fold change /veh CCDC152 (11743942_at) / RFU ECM1 (11717891_a_at) / Fold change /veh ECM1 (11717891_a_at) / RFU IL23R (11748794_a_at) / Fold change /veh IL23R (11748794_a_at) / RFU TNFAIP8L3 (11732012_x_at) / Fold change /veh TNFAIP8L3 (11732012_x_at) / RFU MBOAT4 (11741988_at) / Fold change /veh MBOAT4 (11741988_at) / RFU 11764193_at / Fold change /veh 11764193_at / RFU TMEM53 (11763286_at) / Fold change /veh TMEM53 (11763286_at) / RFU MAGEB2 (11727129_at) / Fold change /veh MAGEB2 (11727129_at) / RFU TMEM200A (11744735_a_at) / Fold change /veh TMEM200A (11744735_a_at) / RFU CCDC152 (11751479_a_at) / Fold change /veh CCDC152 (11751479_a_at) / RFU FAM211A (11726209_a_at) / Fold change /veh FAM211A (11726209_a_at) / RFU RGS16 (11746705_a_at) / Fold change /veh RGS16 (11746705_a_at) / RFU VCAN (11755009_s_at) / Fold change /veh VCAN (11755009_s_at) / RFU RHOB (11743442_s_at) / Fold change /veh RHOB (11743442_s_at) / RFU RGS16 (11720943_a_at) / Fold change /veh RGS16 (11720943_a_at) / RFU RGS16 (11720944_at) / Fold change /veh RGS16 (11720944_at) / RFU, VPS4B / Fold change vs veh, VPS4B / RFU, CREB1 / Fold change vs veh, CREB1 / RFU, DNAJC13 / Fold change vs veh, DNAJC13 / RFU, GNAQ / Fold change vs veh, GNAQ / RFU, CDK5R1 / Fold change vs veh, CDK5R1 / RFU, ZRANB3 / Fold change vs veh, ZRANB3 / RFU, CUL4A / Fold change vs veh, CUL4A / RFU, CCNY / Fold change vs veh, CCNY / RFU, UFL1 / Fold change vs veh, UFL1 / RFU, COG3 / Fold change vs veh, COG3 / RFU, DIAPH2 / Fold change vs veh, DIAPH2 / RFU, SKA2 / Fold change vs veh, SKA2 / RFU, AFF3 / Fold change vs veh, AFF3 / RFU, LMF1 / Fold change vs veh, LMF1 / RFU, IPO11 / Fold change vs veh, IPO11 / RFU, DFFB / Fold change vs veh, DFFB / RFU, FOXP1 / Fold change vs veh, FOXP1 / RFU, CARD8 / Fold change vs veh, CARD8 / RFU, STRN3 / Fold change vs veh, STRN3 / RFU, ADK / Fold change vs veh, ADK / RFU, RASSF2 / Fold change vs veh, RASSF2 / RFU, WIPF1 / Fold change vs veh, WIPF1 / RFU, LARP1B / Fold change vs veh, LARP1B / RFU, RASA1 / Fold change vs veh, RASA1 / RFU, RB1 / Fold change vs veh, RB1 / RFU, PPFIA1 / Fold change vs veh, PPFIA1 / RFU, MAT2A / Fold change vs veh, MAT2A / RFU, CCT5 / Fold change vs veh, CCT5 / RFU, WDR92 / Fold change vs veh, WDR92 / RFU, CUX1 / Fold change vs veh, CUX1 / RFU, TTC7A / Fold change vs veh, TTC7A / RFU, TMEM135 / Fold change vs veh, TMEM135 / RFU, DEPTOR / Fold change vs veh, DEPTOR / RFU, CPM / Fold change vs veh, CPM / RFU, DNAJB6 / Fold change vs veh, DNAJB6 / RFU, CACNA2D3 / Fold change vs veh, CACNA2D3 / RFU, DTX4 / Fold change vs veh, DTX4 / RFU, TFCP2 / Fold change vs veh, TFCP2 / RFU, GMCL1 /// GMCL1P1 / Fold change vs veh, GMCL1 /// GMCL1P1 / RFU, AEBP2 / Fold change vs veh, AEBP2 / RFU, SNHG1 /// SNORD22 /// SNORD25 /// SNORD26 /// SNORD27 /// SNORD28 /// SNORD29 /// SNORD31 / Fold change vs veh, SNHG1 /// SNORD22 /// SNORD25 /// SNORD26 /// SNORD27 /// SNORD28 /// SNORD29 /// SNORD31 / Fold change (Aza/veh), C12orf56 (ProbeSet 11735607_a_at) / Fold change (ACY-1035/veh), C12orf56 (ProbeSet 11735607_a_at) / Fold change (Aza/veh), FGFR1OP (ProbeSet 11751329_s_at) / Fold change (ACY-1035/veh), FGFR1OP (ProbeSet 11751329_s_at) / Fold change (Aza/veh), VPS36 (ProbeSet 11739960_a_at) / Fold change (ACY-1035/veh), VPS36 (ProbeSet 11739960_a_at) / RFU SYPL1 (11715823_x_at) / Fold change /veh SYPL1 (11715823_x_at) / RFU IGFBP7 (11715501_s_at) / Fold change /veh IGFBP7 (11715501_s_at) / RFU REEP3 (11722064_at) / Fold change /veh REEP3 (11722064_at) / RFU IGLL1 (11728026_x_at) / Fold change /veh IGLL1 (11728026_x_at): dose or concentration left out as unconfirmed
Details: ProbeSet 11716331_a_at; LIST D

## Nc1ncn([C@@H]2O[C@H](CO)[C@@H](O)[C@H]2O)c(=O)n1 [azacitidine]
  Fold change vs veh, DNAJB6: 0.52

From article PMC5218480 (PLoS ONE, 2017)
